Assay results taken from PubChem BioAssay (NCI).
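Compound exposure: 48 hours, 5 concentrations, 96-well plates. GI50 = concentration required for 50% inhibition of growth. TGI denotes the concentration required for complete inhibition of growth.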

Key:
Experiment in all cases: NCI anticancer screen, dose series, 48 h
M14 melanoma = tested on: M14 melanoma
UACC-62 melanoma = tested on: UACC-62 melanoma
OVCAR-4 ovarian = tested on: OVCAR-4 ovarian
CCRF-CEM leukemia = tested on: CCRF-CEM leukemia
MOLT-4 leukemia = tested on: MOLT-4 leukemia
ACHN renal = tested on: ACHN renal
SN12C renal = tested on: SN12C renal
MDA-MB-435 = tested on: MDA-MB-435
U251 CNS = tested on: U251 CNS
KM12 colon = tested on: KM12 colon
SNB-75 CNS = tested on: SNB-75 CNS
BT-549 breast = tested on: BT-549 breast
LOX IMVI melanoma = tested on: LOX IMVI melanoma
K-562 leukemia = tested on: K-562 leukemia
HCT-15 colon = tested on: HCT-15 colon
OVCAR-8 ovarian = tested on: OVCAR-8 ovarian
HOP-92 NSCLC = tested on: HOP-92 NSCLC
SW-620 colon = tested on: SW-620 colon
MCF7 breast = tested on: MCF7 breast
MALME-3M melanoma = tested on: MALME-3M melanoma
HCT-116 colon = tested on: HCT-116 colon
SK-MEL-5 melanoma = tested on: SK-MEL-5 melanoma
COLO 205 colon = tested on: COLO 205 colon
HL-60(TB) leukemia = tested on: HL-60(TB) leukemia
NCI-H226 lung = tested on: NCI-H226 lung
RPMI-8226 leukemia = tested on: RPMI-8226 leukemia
SR leukemia = tested on: SR leukemia
MDA-MB-231 breast = tested on: MDA-MB-231 breast
SF-295 CNS = tested on: SF-295 CNS

COc1ccc(NC(=O)c2sc3nc(C)c(C(=O)/C=C/c4cccc(OC)c4)cc3c2N)cc1
GI50 (M14 melanoma): 1780 nM | TGI (M14 melanoma): 18700 nM | GI50 (UACC-62 melanoma): 1390 nM | TGI (UACC-62 melanoma): 4110 nM | GI50 (OVCAR-4 ovarian): 4010 nM | TGI (OVCAR-4 ovarian): 17800 nM | GI50 (CCRF-CEM leukemia): 1210 nM | TGI (CCRF-CEM leukemia): > 50000 nM | GI50 (MOLT-4 leukemia): 1500 nM | TGI (MOLT-4 leukemia): > 50000 nM | GI50 (ACHN renal): 1080 nM | TGI (ACHN renal): 2490 nM | GI50 (SN12C renal): 1430 nM | TGI (SN12C renal): 4470 nM | GI50 (MDA-MB-435): 1350 nM | TGI (MDA-MB-435): 6780 nM | GI50 (U251 CNS): 1010 nM | TGI (U251 CNS): 2140 nM | GI50 (KM12 colon): 1450 nM | TGI (KM12 colon): 5060 nM | GI50 (SNB-75 CNS): 1450 nM | TGI (SNB-75 CNS): 4870 nM | GI50 (BT-549 breast): 1020 nM | TGI (BT-549 breast): 2670 nM | GI50 (LOX IMVI melanoma): 906 nM | TGI (LOX IMVI melanoma): 1710 nM | GI50 (K-562 leukemia): 1430 nM | TGI (K-562 leukemia): > 50000 nM | GI50 (HCT-15 colon): 1010 nM | TGI (HCT-15 colon): 2420 nM | GI50 (OVCAR-8 ovarian): 1590 nM | TGI (OVCAR-8 ovarian): > 50000 nM | GI50 (HOP-92 NSCLC): 1510 nM | TGI (HOP-92 NSCLC): 9990 nM | GI50 (SW-620 colon): 1260 nM | TGI (SW-620 colon): 3790 nM | GI50 (MCF7 breast): 339 nM | TGI (MCF7 breast): > 50000 nM | GI50 (MALME-3M melanoma): 3850 nM | TGI (MALME-3M melanoma): 45000 nM | GI50 (HCT-116 colon): 773 nM | TGI (HCT-116 colon): 1700 nM | GI50 (SK-MEL-5 melanoma): 3550 nM | TGI (SK-MEL-5 melanoma): 10700 nM | GI50 (COLO 205 colon): 2000 nM | TGI (COLO 205 colon): 10900 nM | GI50 (HL-60(TB) leukemia): 1340 nM | TGI (HL-60(TB) leukemia): 4240 nM | GI50 (NCI-H226 lung): 1890 nM | TGI (NCI-H226 lung): 10300 nM | GI50 (RPMI-8226 leukemia): 989 nM | TGI (RPMI-8226 leukemia): 3080 nM | GI50 (SR leukemia): 1240 nM | TGI (SR leukemia): 5920 nM | GI50 (MDA-MB-231 breast): 1660 nM | TGI (MDA-MB-231 breast): > 50000 nM | GI50 (SF-295 CNS): 3280 nM
